According to US20170114025A1, “METHODS FOR INHIBITING NECROPTOSIS” (Catalyst Therapeutics Pty Ltd, priority 2014, published 2017):
pIC50, pKd: −log10 of the molar value.

What was measured:
[1] = biological target: T1, human MLKL(190-471) pseudokinase domain (Homo sapiens, UniProt Q8NB16); experiment: STD NMR nucleotide competition, human MLKL; type: binding; design: His6 (pFastBac HTb, TEV-cleavable) (N, cleaved yes); made in house; host or cells: Sf21 insect cells; conditions: 200 μM compound, 200 μM nucleotide, 2 μM human MLKL(190-471)
T1 sequence (Q8NB16 190-471): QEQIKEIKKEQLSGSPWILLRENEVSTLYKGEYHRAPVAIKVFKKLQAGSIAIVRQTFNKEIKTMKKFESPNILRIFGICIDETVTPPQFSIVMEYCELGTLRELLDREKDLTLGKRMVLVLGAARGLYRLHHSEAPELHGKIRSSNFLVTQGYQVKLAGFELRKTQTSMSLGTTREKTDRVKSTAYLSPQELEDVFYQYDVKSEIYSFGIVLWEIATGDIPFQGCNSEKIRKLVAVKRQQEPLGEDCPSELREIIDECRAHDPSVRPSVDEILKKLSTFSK
Procedure: Nucleotides were dissolved in NMR buffer (20 mM HEPES, pH 7.5, 200 mM NaCl, 90% D2O, 10% H2O) at a final concentration of 200 μM in each sample of STD experiments. Three different samples were prepared for each nucleotide: (1) ATP or ADP with protein buffer added as equivalent volume of protein containing samples (2) ATP or ADP with MLKL pseudokinase domain at a final concentration of 2 μM (3) ATP or ADP with MLKL pseudokinase domain (2 μM) with test compound at 200 μM. […] Saturation of the protein resonances was achieved by a 4 s train of Gaussian pulses centred at −0.5 ppm. For the reference spectra, a similar saturation pulse was applied at a frequency centred 20,000 Hz off-resonance. A 15 ms T2-spin-lock period was employed before acquisition to allow the residual protein signal to decay. NMR data were processed in TOPSPIN version 3.2 (Bruker BioSpin).

[2] = system: wild type MDFs (mouse dermal fibroblasts); experiment: Cell death assay, TSQ-induced necroptosis in MDFs (PI, flow cytometry); type: cell-based; conditions: 24 h
Source text: (§1) Mouse dermal fibroblasts (MDFs) were isolated from three MlkI^−/− mice and three congenic wild type mice and then immortalized by SV40 large T antigen to generate three biologically independent cell lines, as described in Murphy J M, et al. (2013), Immunity 39(3):443-453. Immortalized MDFs were similarly prepared from three Ripk3^−/− mice and congenic wild type mice. MDFs and HEK293T were maintained in Dulbecco's modified Eagle's medium (DMEM) supplemented with 8-10% v/v fetal calf serum (FCS), and 5 μg/mL puromycin for lines stably transduced with inducible expression constructs for MLKL. U937 cells were cultured in RPMI1640 supplemented with 8% v/v FCS. Cell death assays were carried out in 24 well plates, seeding 1×10^5 cells per well. Cells attached over 4 h in the presence of 10 ng/mL doxycycline or 20 ng/mL were then treated with assorted combinations of Necrostatin (50 μM) and Q-VD-OPh (5 μM) 30 min prior to addition of TNF (100 ng/mL) and Smac mimetic (500 nM). After 24 h for MDF cells or 48 h for U937 cells, cells were harvested and PI positive cells (1 μg/mL) quantified using a BD FACSCalibur flow cytometer.

[3] = biological target: T2, mouse MLKL(179-464) pseudokinase domain (Mus musculus, UniProt Q9D2Y4); experiment: Surface Plasmon Resonance (SPR) binding, mouse MLKL
T2 construct: made in house; host or cells: Sf21 insect cells
T2 sequence (Q9D2Y4 179-464 isoform Q9D2Y4-2): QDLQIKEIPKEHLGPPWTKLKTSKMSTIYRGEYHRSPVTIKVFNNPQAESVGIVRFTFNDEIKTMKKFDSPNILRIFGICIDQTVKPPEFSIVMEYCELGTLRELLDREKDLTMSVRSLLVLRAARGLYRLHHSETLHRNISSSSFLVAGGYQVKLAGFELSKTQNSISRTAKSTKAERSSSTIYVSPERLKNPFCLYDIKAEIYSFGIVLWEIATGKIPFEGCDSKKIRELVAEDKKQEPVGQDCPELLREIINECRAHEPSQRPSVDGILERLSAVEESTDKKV
Source text: Double His-tagged MLKL and an unrelated negative control reference protein were immobilized on an NTA Capture chip charged with Ni^2+ according to manufacturer's instructions. In some instances, double His-tagged proteins were captured via Ni^2+/NTA chelation on a series S sensor chip containing carboxymethylated dextran surface pre-immobilized with nitrilotriacetic acid (NTA). The surface was then activated and enhanced with NHS/EDC mixture and His captured proteins covalently coupled to the surface as succinamide esters. Ethanolamine was injected later to block any unreacted esters. Unbound Ni^2+ and non-covalently bound proteins were eluted by EDTA injections.
Typical immobilization levels were 2000-3000 Response Units (RU). Flow cell 1 was left blank as a reference surface. Immobilization experiments were carried out at 25° C. in a running buffer containing 20 mM HEPES (pH 8.0), 200 mM NaCl and 0.005% (v/v) surfactant P20.
Binding experiments were carried out in Running Buffer+2% v/v DMSO. […] Data were reduced, solvent corrected, and double referenced by Biacore T200 Evaluation Software. Data were fit globally to a two state kinetic interaction model and the Kd determined from the (kd/ka) ratio. A 1:1 binding stoichiometry was inferred from the steady state binding curves and the maximum observed Response Unit (RU) levels.

wild-type MDFs = experiment: Toxicity of compound in wild-type MDFs; type: cell-based; conditions: triplicate experiments
Source text: as §1

recombinant RIPK3 = biological target: T3, recombinant RIPK3 (Mus musculus, UniProt Q9QZL0); experiment: In vitro kinase assay; type: biochemical; conditions: for concentrations leading to enhanced RIPK3-mediated phosphorylation of MLKL: mouse MLKL(179-464) as substrate
T3 construct: Recombinant mRIPK3 kinase domain was expressed and purified from Sf21 cells; made in house; host or cells: Sf21 cells
Procedure: In vitro kinase assays were performed as described previously in Murphy J M, et al. (2013), Immunity 39(3):443-453 and Cook W D, et al. (2014) Cell Death Diff. in press, but for the addition of either a DMSO control or up to 12.5 μM of test compound in 0.5% v/v final DMSO.

[4] = system: U937 cells gene-edited to delete MLKL; experiment: Toxicity / TS-induced apoptotic death in U937 cells gene-edited to delete MLKL; type: cell-based, human; conditions: U937 cells lacking MLKL, TS treatment
Source text: as §1

transformed iBMDMs = experiment: Poly(I:C) experiment, RIP1-independent necroptosis; type: cell-based; conditions: poly:IC 50 ug/ml, zVAD 25 uM, 48 hrs
Procedure: Cells were harvested after 48 hrs. Cell death was analysed via propidium iodide staining and flow cytometry.

T3 sequence (Q9QZL0 22-292 limits assumed): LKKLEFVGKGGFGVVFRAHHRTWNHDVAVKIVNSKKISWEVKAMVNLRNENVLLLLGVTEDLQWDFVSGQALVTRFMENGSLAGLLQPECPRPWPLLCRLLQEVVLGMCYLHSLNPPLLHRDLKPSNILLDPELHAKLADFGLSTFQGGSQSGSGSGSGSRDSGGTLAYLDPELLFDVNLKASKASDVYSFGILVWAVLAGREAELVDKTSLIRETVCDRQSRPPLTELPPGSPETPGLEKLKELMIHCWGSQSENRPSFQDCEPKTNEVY

## CN(c1ccc(NC(=O)Nc2ccc(OC(F)(F)F)cc2)cc1)c1ccnc(Nc2cccc(S(N)(=O)=O)c2)n1 [Compound 1, 3-((4-(methyl(4-(3-(4-(trifluoromethoxy)phenyl)ureido)phenyl)amino)pyrimidin-2-yl)amino)benzenesulfonamide]
[1]
  competition with ATP and ADP for binding (STD NMR): can compete with (i) ATP and (ii) ADP
[2]; Mus musculus, Fibroblast, read-out: IC50, rescue from TSQ-induced necroptosis
  pIC50: ~6.30
[2]; wt MDFs
  cells rescued from TSQ-induced necroptosis: ~50%
[3]
  pKd: 5.03
wild-type MDFs
  concentrations at which toxicity induces death of wild-type MDFs: ≥ 5 µM
Recombinant RIPK3; in vitro kinase assays
  inhibition of RIPK3 catalytic activity and of RIPK3-mediated phosphorylation of MLKL: neither the catalytic activity of recombinant RIPK3 nor RIPK3-mediated phosphorylation of MLKL were inhibited
Recombinant RIPK3
  concentrations leading to enhanced RIPK3-mediated phosphorylation of MLKL: ≥ 10 µM
Recombinant RIPK3; listed as compound 1
  concentrations leading to enhanced RIPK3-mediated phosphorylation of MLKL: > 5 µM
Recombinant RIPK3; relative to DMSO control, up to 12.5 μM test compound
  impact on recombinant RIPK3 kinase activity: no impact
[4]
  effect on TS-induced apoptotic death: unaffected
Transformed iBMDMs
  inhibition of Poly(I:C) and zVAD induced necroptosis: inhibits Poly(I:C) and zVAD induced necroptosis
